Measured values taken from patent US20260216347A1, “Substituted Imidazo-Based Compounds as Ligand Directed Degraders of IRAK3” (Celgene Corporation, priority 2022, published 2026).

What was measured:
IRAK3-ePL = target: T1, IRAK3-ePL (Homo sapiens, UniProt Q9Y616); assay: IRAK3-ePL overexpressing degradation assay (InCELL Hunter luminescence, dose response); format: cell-based; conditions: for IRAK3 ePL degradation Ymin: lowest percentage of target protein remaining following compound treatment; for DC50: read-out: IRAK3 ePL degradation EC50
T1 construct: expressed in transfected cells; host or cells: 293T CRBN OE/GSPT1 G575N KI cells, lentiviral transduction, puromycin selected
Method in brief: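 Lenti-X 293T CRBN/GSPT1 G575N cells stably expressing IRAK3-ePL (5,000/well) treated overnight at 37° C with 10-point 3-fold dilutions from 10 μM, 0.2% DMSO. InCELL Hunter luminescence, background subtracted using Ataluren wells and normalized to DMSO; EC50 from four-parameter logistic fit.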

IRAK3 = target: T2, IRAK3 (Homo sapiens, UniProt Q9Y616); assay: IRAK endogenous HTRF degradation assay (Total-IRAK3 HTRF kit); format: cell-based; conditions: overnight incubation, lowest percentage of protein remaining
T2 construct: IRAK Endogenous HTRF Degradation Assay; endogenous in cells
T2 sequence (Q9Y616 1-596): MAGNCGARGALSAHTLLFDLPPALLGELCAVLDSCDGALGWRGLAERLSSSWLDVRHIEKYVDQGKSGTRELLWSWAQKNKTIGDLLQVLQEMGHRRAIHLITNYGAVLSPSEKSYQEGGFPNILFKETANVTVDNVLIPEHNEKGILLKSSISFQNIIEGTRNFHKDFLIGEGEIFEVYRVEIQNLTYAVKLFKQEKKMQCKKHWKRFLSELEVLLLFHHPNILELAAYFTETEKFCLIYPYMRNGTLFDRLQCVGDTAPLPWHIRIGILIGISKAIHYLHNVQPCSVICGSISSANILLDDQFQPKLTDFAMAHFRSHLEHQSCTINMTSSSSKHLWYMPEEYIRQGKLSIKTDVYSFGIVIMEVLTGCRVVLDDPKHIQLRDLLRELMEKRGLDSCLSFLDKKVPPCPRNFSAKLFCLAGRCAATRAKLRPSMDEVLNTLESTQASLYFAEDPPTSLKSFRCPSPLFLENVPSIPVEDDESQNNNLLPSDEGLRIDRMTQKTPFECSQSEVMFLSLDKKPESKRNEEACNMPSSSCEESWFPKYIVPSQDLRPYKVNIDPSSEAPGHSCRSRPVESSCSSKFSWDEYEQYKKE
Experimental: Example B2. IRAK Endogenous HTRF Degradation Assay
Cells (~50 k) were plated in Cisbio 96-well low volume white plates (Cisbio: cat #66PL96005). Compounds were dissolved in DMSO and a 3-fold serial dilution was performed using a TECAN D300E. Cells were incubated with the compound overnight. Total-IRAK3 HTRF kit from Cisbio was used for degradation analysis (Cisbio: 63ADK101PEH). Cryptate and D2 antibodies were diluted in Detection buffer as per manufacturers recommendation. Then 2 μL of each solution was added to 16 μL lysate. Buffer control (lysis buffer detection buffer), Cryptate control (lysis buffer+cryptate antibody+detection buffer), and Negative control (lysis buffer+cryptate antibody+D2 antibody) were made as per manufacturers recommendation. Post incubation with antibodies the HTRF signal was measured using a Perkin Elmer Envision reader and the HTRF signal was calculated using formula: (Emission at 665 nm/Emission at 615 nm)*10,000. All HTRF values were normalized to the average value of DMSO. The average value of the DMSO control wells were set to equal 100% of the relative IRAK3 protein levels. Normalized luminescence values were plotted on a graph as a function of compound concentration. Compound concentration was plotted on the x-axis and the corresponding normalized IRAK3 protein levels on the y-axis. The EC50 value (the half-maximum effective concentration) of a compound for the degradation of the IRAK3 was calculated using a four-parameter logistic model (sigmoidal dose-response model) (FIT=(A+{(B−A)/1+[(C/x)D]})) where C is the inflection point (EC50), D is the […], and A and B are the low and high limits of the fit, respectively). The Ymin was calculated by determining the lowest percentage of target protein remaining following compound treatment. Dmax was calculated from Ymin (% Dmax=100−Ymin).
Using these assays, IC50, Dmax, EC50, and DC50 values of the following compounds were determined. Dmax is defined as the maximum percent degradation achieved and DC50 is the concentration at which 50% degradation is achieved.

| Compound | IRAK3 ePL degradation Ymin (IRAK3-ePL) [%] | DC50 (IRAK3-ePL) [nM] | IRAK3 HTRF degradation Ymin (IRAK3) [%] |
| --- | --- | --- | --- |
| COc1cc(C2CCC(=O)NC2=O)ccc1N1CCN(CCN2CCC(n3cc(Nc4ncc(-c5cc(C)c(F)cc5F)n5ccnc45)cn3)CC2)CC1 (stereo not drawn) [Compound 42, 3-(4-(4-(2-(4-(4-((5-(2,4-difluoro-5-methylphenyl)imdazo [1,2-a]pyrazin-8-yl)amino)-1H-pyrazol-1-yl)piperidin-1-yl)ethyl)piperazin-1-yl)-3-methoxyphenyl) piperidine-2,6-dione] | 23 | 0.51 | 9.8 |
| Cc1cccc(-c2cnc(Nc3cnn([C@H]4CC[C@@H](CCN5CCN(c6ccc(C7CCC(=O)NC7=O)cc6)CC5)CC4)c3)c3nccn23)c1 (stereo partly drawn) [Compound 45, 3-(4-(4-(2-((cis)-4-(4-((5-(m-tolyl)imidazo [1,2-a]pyrazin-8-yl)amino)-1H-pyrazol-1-yl)cyclohexyl)ethyl)piperazin-1-yl)phenyl) piperidine-2,6-dione] | 26 | 7.2 | 15 |
| O=C1CCC(c2ccc(N3CCN(CCN4CCC(n5cc(Nc6ncc(-c7cc8c(cc7F)OCCN8)n7ccnc67)cn5)CC4)CC3)cc2)C(=O)N1 (stereo not drawn) [Compound 51, 3-(4-(4-(2-(4-(4-((5-(7-fluoro-3,4-dihydro-2H-benzo[b][1,4]oxazin-6-yl)imidazo[1,2-a]pyrazin-8-yl)amino)-1H-pyrazol-1-yl)piperidin-1-yl)ethyl)piperazin-1-yl)phenyl) piperidine-2,6-dione] | 24 | 2.5 | 9.3 |
| Cc1cc(-c2cnc(N(C)c3cnn(C4CCN(CCN5CCN(c6ccc(C7CCC(=O)NC7=O)cc6)CC5)CC4)c3)c3nccn23)c(F)cc1F (stereo not drawn) [Compound 52, 3-(4-(4-(2-(4-(4-((5-(2,4-difluoro-5-methylphenyl)imdazo [1,2-a]pyrazin-8-yl)(methyl)amino)-1H-pyrazol-1-yl)piperidin-1-yl)ethyl)piperazin-1-yl)phenyl) piperidine-2,6-dione] | 40 | 96 | 74 |
| Cc1cc(-c2cnc(Nc3cnn([C@H]4CC[C@H](CCN5CCN(c6ccc(C7CCC(=O)NC7=O)cc6)C[C@@H]5C)CC4)c3)c3nccn23)c(F)cc1F (stereo partly drawn) [Compound 57, 3-(4-((S)-4-(2-((trans)-4-(4-((5-(2,4-difluoro-5-methylphenyl)imidazo[1,2-a]pyrazin-8-yl)amino)-1H-pyrazol-1-yl)cyclohexyl)ethyl)-3-methylpiperazin-1-yl)phenyl) piperidine-2,6-dione] | 24 | 5.7 | 8.72 |
| Cc1cc(-c2cnc(Nc3cnn(C4CCN(CCN5[C@H](C)CN(c6ccc(C7CCC(=O)NC7=O)cc6)C[C@H]5C)CC4)c3)c3nccn23)c(F)cc1F (stereo partly drawn) [Compound 58, 3-(4-((3R,5R)-4-(2-(4-(4-((5-(2,4-difluoro-5-methylphenyl)imdazo [1,2-a]pyrazin-8-yl)amino)-1H-pyrazol-1-yl)piperidin-1-yl)ethyl)-3,5-dimethylpiperazin-1-yl)phenyl) piperidine-2,6-dione] | 25 | 0.98 | 9.7 |

Continued by falling DC50 (IRAK3-ePL), values first:

| IRAK3 ePL degradation Ymin (IRAK3-ePL) [%] | DC50 (IRAK3-ePL) [nM] | IRAK3 HTRF degradation Ymin (IRAK3) [%] | Compound |
| --- | --- | --- | --- |
| 84 | 1100 | 64 | Cc1cc(-c2cnc(Nc3cnn(C4CCN(CCN5CCN(c6ccc(C7CCC(=O)N(C)C7=O)cc6)CC5)CC4)c3)c3nccn23)c(F)cc1F (stereo not drawn) [Compound 55, 3-(4-(4-(2-(4-(4-((5-(2,4-difluoro-5-methylphenyl)imdazo [1,2-a]pyrazin-8-yl)amino)-1H-pyrazol-1-yl)piperidin-1-yl)ethyl)piperazin-1-yl)phenyl)-1-methylpiperidine-2,6-dione] |
| 28 | 10 | 15 | Cc1cc(-c2cnc(Nc3cnn(C4CCN(CCN5CCN(c6ccc(C7CCC(=O)NC7=O)c(Cl)c6)CC5)CC4)c3)c3nccn23)c(F)cc1F (stereo not drawn) [Compound 54, 3-(2-chloro-4-(4-(2-(4-(4-((5-(2,4-difluoro-5-methylphenyl)imdazo [1,2-a]pyrazin-8-yl)amino)-1H-pyrazol-1-yl)piperidin-1-yl)ethyl)piperazin-1-yl)phenyl) piperidine-2,6-dione] |
| 24 | 1.5 | 8.5 | CN1CCOc2ccc(-c3cnc(Nc4cnn([C@H]5CC[C@H](CCN6CCN(c7ccc(C8CCC(=O)NC8=O)cc7)CC6)CC5)c4)c4nccn34)cc21 (stereo partly drawn) [Compound 40] |
| 25 | 1.3 | 9.8 | Cc1cc(-c2cnc(Nc3cnn(C4CCN(CCN5CCN(c6ccc(C7CCC(=O)NC7=O)cc6)[C@H](C)C5)CC4)c3)c3nccn23)c(F)cc1F (stereo partly drawn) [Compound 50, 3-(4-((R)-4-(2-(4-(4-((5-(2,4-difluoro-5-methylphenyl)imdazo [1,2-a]pyrazin-8-yl)amino)-1H-pyrazol-1-yl)piperidin-1-yl)ethyl)-2-methylpiperazin-1-yl)phenyl) piperidine-2,6-dione] |
| 26 | 0.97 | 8.1 | Cc1cc(-c2cnc(Nc3cnn(C4CCN(CCN5CCN(c6ccc(C7CCC(=O)NC7=O)cc6)[C@@H](C)C5)CC4)c3)c3nccn23)c(F)cc1F (stereo partly drawn) [Compound 44, 3-(4-((S)-4-(2-(4-(4-((5-(2,4-difluoro-5-methylphenyl)imdazo [1,2-a]pyrazin-8-yl)amino)-1H-pyrazol-1-yl)piperidin-1-yl)ethyl)-2-methylpiperazin-1-yl)phenyl) piperidine-2,6-dione] |
| 22 | 0.9 | 11 | Cc1cc(-c2cnc(Nc3cnn(C4CCN(CCN5CCN(c6ccc(C7CCC(=O)NC7=O)c(F)c6)CC5)CC4)c3)c3nccn23)c(F)cc1F (stereo not drawn) [Compound 53, 3-(4-(4-(2-(4-(4-((5-(2,4-difluoro-5-methylphenyl)imdazo [1,2-a]pyrazin-8-yl)amino)-1H-pyrazol-1-yl)piperidin-1-yl)ethyl)piperazin-1-yl)-2-fluorophenyl)piper idine-2,6-dione] |
| 23 | 0.75 | 8.6 | Cc1cc(-c2cnc(Nc3cnn(C4CCN(CCN5[C@@H](C)CN(c6ccc(C7CCC(=O)NC7=O)cc6)C[C@@H]5C)CC4)c3)c3nccn23)c(F)cc1F (stereo partly drawn) [Compound 56, 3-(4-((3S,5S)-4-(2-(4-(4-((5-(2,4-difluoro-5-methylphenyl)imdazo [1,2-a]pyrazin-8-yl)amino)-1H-pyrazol-1-yl)piperidin-1-yl)ethyl)-3,5-dimethylpiperazin-1-yl)phenyl) piperidine-2,6-dione] |
| 25 | 0.68 | 8.7 | Cc1cc(-c2cnc(Nc3cnn(C4CCN(CCN5CCN(c6cccc7c(C8CCC(=O)NC8=O)nn(C)c67)CC5)CC4)c3)c3nccn23)c(F)cc1F (stereo not drawn) [Compound 41, 3-(7-(4-(2-(4-(4-((5-(2,4-difluoro-5-methylphenyl)imdazo [1,2-a]pyrazin-8-yl)amino)-1H-pyrazol-1-yl)piperidin-1-yl)ethyl)piperazin-1-yl)-1-methyl-1H-indazol-3-yl)piperidine-2,6-dione] |
